This is an account of results in US8247444B2, “Anti-tumor effect of dimeric phthalide compound” (priority 2007, dated 2012).

One test has as its system K562. Description: Growth inhibition of sensitive and drug-resistant cell lines (IC50), K562. Type of test: cell-based. The conditions noted are these: Homo sapiens; K562 cells. The protocol: (§1) The human lung cancer cell H1299 and H446, glioma cell U251 and U87MG, and human hepatic cellular cancer Bel-7402 cell in logarithmic growth phase were digested with pancreatic enzyme, and then suspended into DMEM or RPMI1640 containing 10% fetal bovine serum. The leukemic cells Kasumi-1 need no digestion, and were suspended into RPMI1640 containing 10% fetal bovine serum directly after centrifugalization. The cell density was adjusted to 1×10^4 cells/ml through cell counting, and the cell suspensions were seeded into a 96-well plate respectively, 100 μl/well, totally 6 groups of cells. The adherent cells were cultured overnight, the suspended cells were added different concentration gradients of dimeric phthalide compounds (S1-S6) directly, n=6 for each concentration of a single agent. The final volume was 200 ul, and the balance was supplemented with the culture medium. The plate was then incubated for 68 hours in 37° C., saturated humidity, 5% CO2 cell incubator. The medium was aspirated and 72 μl/well fresh culture medium was added. 8 μl […] (CCK-8) was added into each well and cultured for 2 hours. The absorbance was measured at 450 nm. The results were calculated as the 50% inhibiting drug concentration, i.e. IC50, using Sigmoidal simulation function by software Origin 7.0.
(§2) The cancer cells (various cell lines as shown in table 1 or FIG. 3) were seeded 1×10^3 cells per well into a 96-well plate. The suspended cells were added different concentration of dimeric phthalide compounds (S1-S6) directly, and the adherent cells were cultured overnight and added different concentration of dimeric phthalide compounds (S1-S6). The different concentration of dimeric phthalide compounds were divided into 10 groups: 0, 0.1, 0.5, 1, 5, 10, 20, 40, 80, 160 μg/ml, n=6 for each concentration.
(§3) According to the method described in Example 2, […] was detected and IC50 was calculated. The experiment was repeated for 3 times.
(§4) The growth inhibition effects of dimers of S1-S6 on its sensitive cell lines as well as the drug-resistant sub-strains (IC50 (μg/ml)) were shown in table 1 and FIG. 3.

In a further test the test system is MCF-7/Adr. Description: Growth inhibition of sensitive and drug-resistant cell lines (IC50), MCF-7/Adr. The format is cell-based. The note with it: Homo sapiens, NCI/ADR-RES; MCF-7/Adr drug-resistant cells.
Excerpt: (§5) HL-60/ADR, MCF-7/ADR, K562/ADR, Bel-7402/5-FU, KBV200, SMMC-7721/Adr were respectively chemotherapeutics Adriamycin (ADR), 5-Fluorouracil (5-FU) or vincristine (VCR) drug-resistant sub-stains of HL-60, MCF-7, K562, Bel-7402, KB, SMMC-7721 cells (all from Chinese Academy of Medical Sciences). NB4-R2 was all trans-retinoic acid (ATRA) drug-resistant sub-stain (from Pathophysiology Research Department of Shanghai JiaoTong University). The main drug-resistance mechanism of K562/ADR was high expression of P-glycoprotein (P-gp), along with increased expression of Bcl-2. In addition to high expression of P-gp, the drug-resistance mechanism of MCF-7/ADR also related to the high expression of Breast Cancer Resistant Protein (BCRP). The main drug-resistance mechanism of HL-60/ADR was high expression of Multidrug Resistance Protein 1 (MRP1), along with high expression of Bcl-2, Bcl-xL. […] The main drug-resistance mechanism of KBV200 was high expression of P-gp and its increased activity. The drug-resistance mechanism of NB4-R2 on ATRA was mutation in the RAR gene locus.
as §1, §2, §3, §4

In the next test the test system is Bel-7402. Description: Growth inhibition of sensitive and drug-resistant cell lines (IC50), Bel-7402. Type of test: cell-based. The conditions noted are these: Homo sapiens; Bel-7402 cells, Table 1. The protocol: In the following Examples, the cell lines used were H1299, H446 (human lung cancer cell line), KB (human oral cavity carcinoma cell line), NB4, HL-60 (human leukemic cell line), U251 ? U87MG (human glioblastoma cell line), MCF-7 (human breast carcinoma cell line), Bel-7402 and SMMC7721 (human hepatic cellular cancer cell line), SW620 (human colon carcinoma cell line), HDF (human dermis fibroblast), HUVEC (human umbilical vein endothelial cell line) and Kasumi-1 (human acute myeloid leukaemia cell line), all from American Type Culture Collection (ATCC).
as §1, §2, §3, §4

The next test relates to SMMC-7721/Adr. Description: Growth inhibition of sensitive and drug-resistant cell lines (IC50), SMMC-7721/Adr. The note with it: Homo sapiens; SMMC-7721/Adr drug-resistant cells. Type of test: cell-based.
Excerpt: as §5, §1, §2, §3, §4

The test system of a further test is HUVEC. As to the kind of experiment: Vascular endothelial cell inhibition assay (CCK-8), HUVEC. The conditions noted are these: Homo sapiens, 72 h. Type of test: cell-based. The protocol:
(§6) 2×10^3 cells were seeded into a 96-well plate and cultured for 24 h. S1-S6 of different concentrations (0, 0.01, 0.1, 0.5, 1, 2.5, 5, 10, 20, 40, 80, 160 μg/ml, respectively) were added and incubated for 72 h, n=6 for each concentration. The inhibition of cell proliferation was detected by CCK-8 assay, the results were calculated as IC50, as describe in Example 3.

For the next test, the system named is KB. Description: Vascular endothelial cell inhibition assay (CCK-8), KB. Type of test: cell-based. The conditions noted are these: Homo sapiens, 72 h, CCK-8, Table 2. The protocol: as §6
For test [1], the system named is H1299, H446, U251, U87MG, Bel-7402 and Kasumi-1 cells. As to the kind of experiment: Inhibition effects on proliferation (CCK-8), various human cancer cells. The format is cell-based. The note with it: FIG. 2, 68 h. The protocol:
as §1

The subject of test [2] is drug-resistant cells of different mechanisms and sensitive cells. Description: Overcome drug resistance: efficacy on drug-resistant cells compared with sensitive cells. Type of test: cell-based, human. The note with it: table 1 and FIG. 3. The protocol:
as §2, §3

In test [3] the test system is U87MG, H1299 and HL-60 heterograft tumors. As to the kind of experiment: Inhibition of the growth of nude mouse heterograft tumors. The conditions noted are these: intraperitoneal; S4 25 mg/kg, S6 30 mg/kg, S1 32 mg/kg, BP 250 mg/kg; 4 weeks; FIG. 9. The format is in vivo, Balb/c male nude mice. The protocol:
Experimental grouping: Balb/c male nude mice were used, each weighted 18-22 g, and three assays were performed. The mice were seeded with U87MG, H1299 and HL-60 respectively. The animals were divided into three groups for each experiment, one as control, one was administered with the dimeric phthalide compounds, and one was administered with monomers of phthalide compound, 6 animals for each group.
For the group which was administered with monomers of phthalide compound, we used n-butylidenephthalide (BP) (Sigma) as active ingredient for tumor suppression, the compound had the structure as follows:
Experimental Process The H1299, HL-60 or U87MG cells growing in logarithmic phase were used. […] When the tumors had gown into 0.1-0.5 cm^3 (about 7-10 days), the animals were intraperitoneal injected with the dimeric phthalide compound S4 (25 mg/kg), S6 (30 mg/kg), S1 (32 mg/kg), each 200 μl; for the group of monomers of phthalide compound, the mice were intraperitoneal injected with n-butylidenephthalide (250 mg/kg); the control group was administered with equal volume of vehicle. The animals were sacrificed after 4 weeks, and the subcutaneous tumors were separated. Photographs were taken (FIG. 9A) and the tumors were weighted (FIG. 9B).

In brackets after ≈: the same amount, converted by molar mass.

The term IC50 denotes the midpoint of a concentration-inhibition curve. As for `CCC/C=C1\OC(=O)C2=C1CCC1C2[C@@]23CC[C@@H]1C=C2C(=O)O/C3=C\CCC` (stereo partly drawn) [S4], the IC50 in the test with K562 was 11.5 ± 0.831 µg/mL (≈ 30.3 µM); in the test on MCF-7/Adr, 20.3 ± 2.12 µg/mL (≈ 53.4 µM); with Bel-7402 it was 16.4 ± 1.94 µg/mL (≈ 43.2 µM); in the test on SMMC-7721/Adr, 22.7 ± 2.55 µg/mL (≈ 59.6 µM); in the test on HUVEC, 4.14 µg/mL (≈ 10.9 µM); in the test with KB, 21.4 µg/mL (≈ 56.2 µM). Moreover, the “inhibition effect on proliferation of various human cancer cells” value in test [1] is “best inhibition effects on most of the cancer cells”. The “efficacy on drug-resistant cells compared with sensitive cells” value in test [2] was “the best effect”. The tumor inhibition effect result in test [3] was “significant tumor inhibition effects”.
